The source of these data is patent publication US20110144577A1, “HYDROPHILIC COATINGS WITH TUNABLE COMPOSITION FOR DRUG COATED BALLOON” (priority 2009, published 2011).

SMILES strings stand for the structures.

Broadly, the solubility is the concentration that dissolves in the medium under given conditions.

A short description of this data set: Solubility enhancement of zotarolimus with select excipients in PBS. In kind it is physicochemical. Particulars: n = 3. An excerpt:
Table 1 provides non-limiting examples of the solubility enhancement provided by excipients that can be used in accordance with the disclosed subject matter: […]

Take `CO[C@H]1C[C@@H]2CC[C@@H](C)[C@@](O)(O2)C(=O)C(=O)N2CCCC[C@H]2C(=O)O[C@H]([C@H](C)C[C@@H]2CC[C@H](n3cnnn3)[C@H](OC)C2)CC(=O)[C@H](C)/C=C(\C)[C@@H](O)[C@@H](OC)C(=O)[C@H](C)C[C@H](C)/C=C/C=C/C=C/1C` [Zotarolimus, zotarolimus]: the solubility is, setting by setting: (PBS with 5% w/w PEG 400, aqueous with cosolvent or surfactant or cyclodextrin, PEG 400 5% w/w in PBS) 31.5 ± 3.5 µg/mL; (PBS with 5% w/w PEG-PE, aqueous with cosolvent or surfactant or cyclodextrin, PEG-PE 5% w/w in PBS) 1020 ± 417 µg/mL; (PBS with 5% w/w PVP C-17, aqueous with cosolvent or surfactant or cyclodextrin, PVP C-17 5% w/w in PBS) 5.6 ± 1.6 µg/mL; (PBS with 5% w/w Tween 20, aqueous with cosolvent or surfactant or cyclodextrin, Tween 20 5% w/w in PBS) 732 ± 94.7 µg/mL; (PBS with 5% w/w Vitamin E TPGS, aqueous with cosolvent or surfactant or cyclodextrin, Vitamin E TPGS 5% w/w in PBS) 512 ± 49.5 µg/mL; (PBS with 5% w/w glycerol, aqueous with cosolvent or surfactant or cyclodextrin, Glycerol 5% w/w in PBS) 43.2 ± 30.1 µg/mL. The solubility by setting is: (PBS with 5% w/w hydroxypropyl-β-cyclodextrin, aqueous with cosolvent or surfactant or cyclodextrin, Hydroxypropyl-β-cyclodextrin 5% w/w in PBS) 11.6 ± 3.1 µg/mL; (PBS with 5% γ-cyclodextrin, aqueous with cosolvent or surfactant or cyclodextrin, 5% γ-Cyclodextrin in PBS) 55.3 ± 34.3 µg/mL.
